Results on two molecules are retold here after patent US9018172B2, “Modification of peptides via SNAr reactions of thiols with fluorinated aromatics” (Massachusetts Institute of Technology, priority 2012, dated 2015).

Data set [1] is described as follows: Proteolysis assay with trypsin or chymotrypsin, LC-MS. As to conditions: isolated enzyme several chymotrypsin trypsin, pH 8.1; after 10 minutes with protease (trypsin/chymotrypsin), 37° C.; read-out: intact peptide observed. The data set is classed as in vitro ADME. The procedure:
100 μL of peptide (100 μM) in phosphate buffer (pH 8.1) was mixed and incubated with 40 μL of the protease solution (trypsin—70 μg/mL; chymotrypsin—50 μg/mL) at 37° C. Aliquots of 35 μL were quenched with 55 μL of 1% TFA solution in MeCN and subjected to LC-MS analysis at 10, 25 and 40 minutes respectively. Peptide concentrations at different time points were quantified by integration of the TIC trace relative to the starting peptide sample. Note, that in the case of experiments with unstapled peptide 7, <1% of the intact peptide was observed after 10 minutes.

Data set [2] has as its system HEK293T cells. Kind of data set: Confocal microscopy cell imaging of FITC-labeled peptide uptake. Format: cell-based. The settings on record: 5 μM, 4 hours. The procedure:
293T HEK cells were cultured with DMEM with 10% FBS (v/v) in imaging dishes (70K cells/well) in 37° C., 5% CO2 incubator for two days until they are about 70% confluent. Appropriate amounts of peptides 7, 7a, 7b, 8a and 8b dissolved in autoclaved H2O were added to the cells to final concentrations of 5 μM. Peptide 9 was first dissolved in DMSO to make a 200 μM stock and then added to cells to a final concentration of 5 μM. The cells were incubated with the samples for 4 hours at 37° C. and 5% CO2. After incubation, cells were washed 3 times with DPBS and then fixed with 4% formaldehyde in DPBS for 10 minutes. They are then washed 3 times with HBSS and stained with 5 μg/mL wheat germ agglutinin-tetramethylrhodamine conjugate in HBSS for 20 minutes. The cells were subsequently washed with HBSS once and DPBS twice and stained with 5 μg/mL diamidino-2-phenylindole (DAPI) in DPBS for 30 minutes. They were washed 3 times with DPBS and covered in one drop of pri-Gold and cover slide. Images of peptide localization in cells were taken on PerkinElmer Ultraview Spinning Disk Confocal with 30% of its maximum laser power in 488 channel with 500 ms exposure time and 0.5 μm Z-stacking Image processing was done using Volocity software package (PerkinElmer).

Data set [3] is described as follows: Temperature-dependent melting from CD spectra at 222 nm. As to conditions: CD at 222 nm. The data set is classed as physicochemical. The procedure: CD measurements were done with Aviv 202 spectrometer using 1 mm quartz cuvette. Peptide solutions were made by dissolving solid samples in 25% acetonitrile/water mixture, CD spectra of 3a and 3b were measured in acetonitrile, CD spectra of affibodies was collected in 10 mM phosphate buffer. Concentration of affibodies was estimated by UV absorbance measurements at 280 nm. Contribution of the perfluorinated staple in 6a on the absorbance value at 280 nm was taken into account (estimated molar extinction coefficient for [—S—C6F4—S-]˜5000 cm^−1M^−1 from UV measurements of solutions of 6 and 6a) in these measurements. Data processing included solvent background correction (subtraction) and adjustment for pathlength and concentration (MRE=[θ]λ=θobs×1/(10 lcn); θobs=measured ellipticity, θ=mean residual ellipticity in deg×cm^2×dmol^−1, 1=pathlength (cm); c=concentration of peptide (M); n=# of amino acids). α-helicities of the peptides were estimated using previously established methods.

On to `CC[C@H](C)[C@H](NC(=O)CCNC(=S)Nc1ccc(-c2c3ccc(=O)cc-3oc3cc(O)ccc23)c(C(=O)O)c1)C(=O)N[C@H](C(=O)N[C@@H](Cc1ccccc1)C(=O)N[C@@H](CSCC(N)=O)C(=O)N[C@@H](CC(=O)O)C(=O)N[C@@H](CC(C)C)C(=O)N[C@@H](CC(C)C)C(=O)N[C@@H](CSCC(N)=O)C(=O)N[C@@H](Cc1ccc(O)cc1)C(=O)N[C@@H](Cc1ccc(O)cc1)C(=O)NCC(=O)N[C@@H](CCCCN)C(=O)N[C@@H](CCCCN)C(=O)N[C@@H](CCCCN)C(N)=O)[C@@H](C)O` [Peptide 7], for which the remaining at 10 min in data set [1] is less than 1%. Also, the “cellular uptake (confocal microscopy)” value in data set [2] was “no fluorescent positive cells”.

Turning to “Affibody 10a: HER-2 affibody with perfluoroaryl staple at Cys42, Cys46 on the C-terminal helix”, the “temperature dependent melting properties” value in data set [3] is recorded as “not compromised”.
